Laboratory results: article PMC8757871, “Bridging the Antimicrobial Activity of Two Lactoferricin Derivatives in E. coli and Lipid-Only Membranes” (Frontiers in Medical Technology, 2021)

Tests used:
[1] = solubility of the peptide in buffer (stock preparation); format: physicochemical; settings: PBS / HBS stock solutions; acetic acid up to 0.3% and DMSO up to 3% vol/vol added
Description: Peptide stock solutions of LF11-215 and LF11-324 were prepared in PBS solution for bacteria and HBS solution for lipid vesicles. […] AMP concentrations of the stock solutions were determined by comparing against the absorption band of the aromatic amino acids with the spectrophotometer NanoDrop ND-1000 (Thermo Fisher Scientific, Waltham, MA). Peptide stock solutions were stored in silanized glass tubes until use.

[2] = ANTS/DPX dye leakage assay and equi-activity partitioning analysis; settings: for K (mole fraction partitioning coefficient) / RB ([P]B/[L]) / [P]W (peptide concentration in the water phase): fit of Equation (4), [L] = (1−20) mM, [P] = (0.05−2) mM, HBS
Description: All hydrated samples were equilibrated for 1 h at 40°C followed by 5 freeze-and-thaw cycles using liquid N2 and intermittent vortex-mixing. Large unilamellar vesicles (LUVs) were obtained by 31 extrusions with a handheld mini extruder (Avanti Polar Lipids, Alabaster, AL) using a 100 nm pore diameter polycarbonate filter. Vesicle size and polydispersity were determined via DLS using a Zetasizer NANO ZSP (Malvern Panalytical, Malvern, UK). ANTS/DPX-containing vesicles were separated from free ANTS/DPX by exclusion chromatography using a column filled with SephadexTM G-75 (Amersham Biosciences, Little Chalfont, UK) fine gel swollen in iso-osmotic HBS. Phospholipid concentrations for all samples were determined by phosphate analysis.
Dye leakage experiments were performed combining previously reported protocols ([20], [27]). […] Similar time protocols were applied previously ([27]) and are justified here based on separate time-resolved leakage experiments (Supplementary Figure 3) and Trp-fluorescence measurements (Figure 3), showing that a quasi steady state has been reached after 1 h. Before measurements, lipid/peptide solutions were diluted with HBS to a lipid concentration of 50 μM, and every measurement was repeated at least twice. Vesicle size was checked after each incubation period using DLS. Samples were excited at λ= 360 nm, and the intensity of the fluorescence emission peak at λ= 530 nm, Ip, was recorded with a slit width of 10 nm for both excitation and emission monochromators. Measurements were performed in quartz cuvettes in 2 ml of the iso-osmotic buffer on a Cary Eclipse Fluorescence Spectrophotometer (Varian/Agilent Technologies, Palo Alto, CA). The percentage of leakage, E%, was calculated according to the relation
(1) E%=Ip-Imin/Imax-Imin,
where Imin is the initial fluorescence without peptide, and Imax is the fluorescence corresponding to 100% leakage determined through the addition of a 1 vol% solution of Triton X-100. The initial, monotonic increase of E% values with increasing [P] was interpolated with a sigmoidal function. This enabled us to obtain peptide and lipid concentrations leading to a specific E% value, which can in turn be used to calculate the partitioning parameters (see section 2.3.1).
(4) [P]=RB[W]/K︸[P]W+RB[L]︸[P]B=RB([W]/K+[L]),

[3] = POPG LUVs, leakage 10%, 1 h at 37°C
[4] = POPG LUVs, leakage 20%, 1 h at 37°C
[5] = POPG LUVs, leakage 40%, 1 h at 37°C

| Substance | solubility in buffer [1] | K (mole fraction partitioning coefficient) [2, 3] | RB ([P]B/[L]) [2, 3] | [P]W (peptide concentration in the water phase) [2, 3] [mM] | K (mole fraction partitioning coefficient) [2, 4] | RB ([P]B/[L]) [2, 4] | [P]W (peptide concentration in the water phase) [2, 4] [mM] | K (mole fraction partitioning coefficient) [2, 5] | RB ([P]B/[L]) [2, 5] | [P]W (peptide concentration in the water phase) [2, 5] [mM] | ANTS/DPX leakage, maximum reached (sigmoidal increase up to) ([2]; POPG LUVs, 1 h at 37°C, increasing [P]) [%] | fraction of peptides partitioned into the lipid phase ([2]; POPG, at [L] ≃20 mM) [%] |
| --- | --- | --- | --- | --- | --- | --- | --- | --- | --- | --- | --- | --- |
| H-PFFWRIRIRR-NH2 [LF11-324, H-PFFWRIRIRR-NH2] | weak solubility | – | – | – | – | – | – | – | – | – | – | – |
| H-FWRIRIRR-NH2 [LF11-215, H-FWRIRIRR-NH2] | – | 2.4 ± 0.7 ×10^4 | 36 ± 4 ×10^−3 | 0.08 ± 0.03 | 4.2 ± 0.4 ×10^4 | 55.9 ± 1.6 ×10^−3 | 0.073 ± 0.009 | 5.4 ± 1.4 ×10^4 | 72 ± 6 ×10^−3 | 0.08 ± 0.03 | ≤ 100 | > 90 |
